According to the supplement of paper PMC10307832:

compound: Cc1cnc(CNC(=O)c2c(=O)c3ccc(N4CCCN(C)CC4)nc3n3c2sc2ccccc23)cn1 [CX-5461] + C[C@@H](Oc1cc(-c2cnn(C3CCNCC3)c2)cnc1N)c1c(Cl)ccc(F)c1Cl [Crizotinib] (partner 1 µM); assay: relative viability (nuclei count vs DMSO), 5 days (fraction); higher = more cells survive; settings: first compound 0.01 µM
How it was run: (§1)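 Relative viability divides the nuclei count in treated wells by that in vehicle wells. Lung cancer cell lines were seeded in 1536-well plates, dosed by pin tool the next day, and fixed and stained after 5 days in one step with final 0.05% Triton X-100, 1% formaldehyde and 1 ug/ml Hoechst. Dosing was a single drug or a fixed anchor-drug dose plus five library-drug doses (not always all listed) in √10 steps, and values are medians of duplicate plates imaged at 4×.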

Cell Line | relative viability
LU99A | 0.571
BEN | 1
HARA | 1.16
HCC-78 | 0.357
NCI-H322M | 0.924
LCLC-97TM1 | 0.436
NCI-H2009 | 1.07
A-427 | 1.04
NCI-H661 | 1.01
NCI-H1734 | 0.666
NCI-H460 | 1.03
NCI-H2347 | 0.446
SW 1573 | 0.806
201T | 1.07
NCI-H1915 | 0.937
HCC-827 | 0.876
LXF-289 | 0.805

Cell Line | relative viability
NCI-H23 | 0.609
NCI-H647 | 1.02
CAL-12T | 0.564
NCI-H1651 | 0.829
EPLC-272H | 1.04
NCI-H2228 | 0.445
NCI-H1792 | 0.957
NCI-H1355 | 1.06
NCI-H3122 | 0.299
NCI-H1437 | 1
NCI-H1755 | 0.921
NCI-H2023 | 0.584
HCC-15 | 0.884
NCI-H1944 | 1.16
PC-14 | 1.02
EKVX | 1.12

same assay, conditions: first compound 0.03162 µM

Cell Line | relative viability
LU99A | 0.552
BEN | 0.905
HARA | 1.14
HCC-78 | 0.36
NCI-H322M | 1.06
LCLC-97TM1 | 0.422
NCI-H2009 | 1.02
A-427 | 1.08
NCI-H661 | 1.08
NCI-H1734 | 0.82
NCI-H460 | 1.06
NCI-H2347 | 0.696
SW 1573 | 0.817
201T | 1.02
NCI-H1915 | 0.934
HCC-827 | 0.877
LXF-289 | 0.882

Cell Line | relative viability
NCI-H23 | 0.584
NCI-H647 | 1.18
CAL-12T | 0.588
NCI-H1651 | 0.862
EPLC-272H | 1.01
NCI-H2228 | 0.602
NCI-H1792 | 0.979
NCI-H1355 | 1.24
NCI-H3122 | 0.267
NCI-H1437 | 0.948
NCI-H1755 | 0.937
NCI-H2023 | 0.558
HCC-15 | 0.888
NCI-H1944 | 1.38
PC-14 | 1.05
EKVX | 0.997

same assay, conditions: first compound 0.1 µM

Cell Line | relative viability
LU99A | 0.495
BEN | 0.912
HARA | 0.941
HCC-78 | 0.358
NCI-H322M | 0.79
LCLC-97TM1 | 0.286
NCI-H2009 | 1.09
A-427 | 1
NCI-H661 | 1.02
NCI-H1734 | 0.742
NCI-H460 | 0.077
NCI-H2347 | 0.674
SW 1573 | 0.889
201T | 1.02
NCI-H1915 | 0.892
HCC-827 | 0.905
LXF-289 | 0.823
NCI-H23 | 0.55
NCI-H647 | 1.05
NCI-H1651 | 0.76
EPLC-272H | 0.941
NCI-H2228 | 0.511
NCI-H1792 | 0.949
NCI-H1355 | 1.04
NCI-H3122 | 0.284
NCI-H1755 | 0.895
HCC-15 | 0.765
NCI-H1944 | 1.18
PC-14 | 0.957
EKVX | 0.899

same assay, conditions: first compound 0.3162 µM

Cell Line | relative viability
LU99A | 0.344
BEN | 0.832
HARA | 0.206
HCC-78 | 0.243
NCI-H2009 | 1.02
NCI-H661 | 0.615
NCI-H1734 | 0.536
NCI-H460 | 0.567
NCI-H2347 | 0.687
SW 1573 | 0.633
201T | 1.03
NCI-H1915 | 0.888
HCC-827 | 0.866
LXF-289 | 0.399
NCI-H23 | 0.437
NCI-H647 | 1.06
CAL-12T | 0.653
NCI-H1651 | 0.967
NCI-H2228 | 0.482
NCI-H1792 | 0.978
NCI-H1355 | 1.07
NCI-H3122 | 0.255
NCI-H1437 | 0.885
NCI-H1755 | 0.842
NCI-H2023 | 0.391
HCC-15 | 0.766
PC-14 | 0.863

same assay, conditions: first compound 1 µM

Cell Line | relative viability
LU99A | 0.453
BEN | 0.752
HARA | 0.954
HCC-78 | 0.328
NCI-H322M | 0.877
LCLC-97TM1 | 0.436
NCI-H2009 | 0.697
A-427 | 0.888
NCI-H661 | 0.944
NCI-H1734 | 0.623
NCI-H460 | 0.0138
NCI-H2347 | 0.523
SW 1573 | 0.657
201T | 1.01
NCI-H1915 | 0.902
HCC-827 | 0.846
LXF-289 | 0.725

Cell Line | relative viability
NCI-H23 | 0.48
NCI-H647 | 0.401
CAL-12T | 0.365
NCI-H1651 | 0.812
EPLC-272H | 0.985
NCI-H2228 | 0.204
NCI-H1792 | 0.913
NCI-H1355 | 1.09
NCI-H3122 | 0.282
NCI-H1437 | 0.791
NCI-H1755 | 0.833
NCI-H2023 | 0.0858
HCC-15 | 0.691
NCI-H1944 | 1.05
PC-14 | 0.91
EKVX | 0.827

compound: Cc1cnc(CNC(=O)c2c(=O)c3ccc(N4CCCN(C)CC4)nc3n3c2sc2ccccc23)cn1 [CX-5461] + C[C@]1(O)C[C@@H](c2nc(-c3ccc4ccc(-c5ccccc5)nc4c3)c3c(N)nccn32)C1 [Linsitinib] (partner 1 µM); assay: as above; settings: first compound 0.01 µM
How it was run: as §1

Cell Line | relative viability
LU99A | 0.562
BEN | 1.01
HARA | 0.953
HCC-78 | 0.566
NCI-H322M | 0.844
LCLC-97TM1 | 0.176
NCI-H2009 | 1.24
A-427 | 1.19
NCI-H661 | 0.593
NCI-H1734 | 1.01
NCI-H460 | 1.02
NCI-H2347 | 0.963
SW 1573 | 0.782
201T | 1.05
NCI-H1915 | 1.1
HCC-827 | 0.901

Cell Line | relative viability
LXF-289 | 0.963
NCI-H23 | 0.612
NCI-H647 | 1.15
CAL-12T | 0.874
EPLC-272H | 1.3
NCI-H2228 | 0.736
NCI-H1792 | 0.54
NCI-H1355 | 0.859
NCI-H3122 | 0.99
NCI-H1437 | 1.17
NCI-H1755 | 0.983
NCI-H2023 | 0.661
HCC-15 | 0.906
NCI-H1944 | 1.27
PC-14 | 0.954
EKVX | 1.19

same assay, conditions: first compound 0.03162 µM

Cell Line | relative viability
LU99A | 0.575
BEN | 0.967
HARA | 1.04
HCC-78 | 0.548
NCI-H322M | 0.911
LCLC-97TM1 | 0.205
NCI-H2009 | 1.14
A-427 | 1.11
NCI-H661 | 0.721
NCI-H1734 | 0.97
NCI-H460 | 0.713
NCI-H2347 | 1.03
SW 1573 | 0.84
201T | 0.995
NCI-H1915 | 1.13
HCC-827 | 1.01
LXF-289 | 1

Cell Line | relative viability
NCI-H23 | 0.554
NCI-H647 | 1.25
CAL-12T | 1.05
NCI-H1651 | 0.755
EPLC-272H | 1.27
NCI-H2228 | 0.975
NCI-H1792 | 0.58
NCI-H1355 | 0.845
NCI-H3122 | 1.05
NCI-H1437 | 1.11
NCI-H1755 | 1.05
NCI-H2023 | 0.744
HCC-15 | 0.904
NCI-H1944 | 1.26
PC-14 | 0.992
EKVX | 1.02

same assay, conditions: first compound 0.1 µM

Cell Line | relative viability
LU99A | 0.494
BEN | 1.01
HARA | 0.98
HCC-78 | 0.502
NCI-H322M | 0.944
LCLC-97TM1 | 0.168
NCI-H2009 | 1.18
A-427 | 1.15
NCI-H661 | 0.87
NCI-H1734 | 0.901
NCI-H460 | 0.133
NCI-H2347 | 1.04
SW 1573 | 0.977
201T | 1.03
NCI-H1915 | 1.12
HCC-827 | 0.999
LXF-289 | 1.04
NCI-H23 | 0.709
NCI-H647 | 1.1
CAL-12T | 0.843
EPLC-272H | 1.09
NCI-H2228 | 0.416
NCI-H1792 | 0.485
NCI-H1355 | 0.893
NCI-H3122 | 0.994
NCI-H1755 | 0.968
HCC-15 | 0.933
NCI-H1944 | 1.05
PC-14 | 1.03
EKVX | 0.962

same assay, conditions: first compound 0.3162 µM

Cell Line | relative viability
LU99A | 0.345
BEN | 0.827
HARA | 0.772
HCC-78 | 0.437
NCI-H2009 | 1.19
NCI-H1734 | 0.772
NCI-H460 | 0.537
NCI-H2347 | 0.582
SW 1573 | 0.828
201T | 1.02
NCI-H1915 | 1.12
HCC-827 | 0.946
LXF-289 | 0.903
NCI-H23 | 0.529
NCI-H647 | 1.25
CAL-12T | 0.868
NCI-H1651 | 0.714
NCI-H2228 | 0.718
NCI-H1792 | 0.565
NCI-H1355 | 0.838
NCI-H3122 | 1.1
NCI-H1437 | 0.991
NCI-H1755 | 0.993
NCI-H2023 | 0.599
HCC-15 | 0.909
PC-14 | 0.987

same assay, conditions: first compound 1 µM

Cell Line | relative viability
LU99A | 0.53
BEN | 0.727
HARA | 0.966
HCC-78 | 0.398
NCI-H322M | 0.9
LCLC-97TM1 | 0.212
NCI-H2009 | 0.804
A-427 | 1.08
NCI-H661 | 0.433
NCI-H1734 | 0.868
NCI-H460 | 0.0178
NCI-H2347 | 0.795
SW 1573 | 0.907
201T | 0.993
NCI-H1915 | 1.16
HCC-827 | 0.957
LXF-289 | 0.949

Cell Line | relative viability
NCI-H23 | 0.451
NCI-H647 | 0.442
CAL-12T | 0.622
NCI-H1651 | 0.11
EPLC-272H | 1.06
NCI-H2228 | 0.282
NCI-H1792 | 0.545
NCI-H1355 | 0.787
NCI-H3122 | 0.973
NCI-H1437 | 0.763
NCI-H1755 | 1.01
NCI-H2023 | 0.162
HCC-15 | 0.834
NCI-H1944 | 1.18
PC-14 | 0.878
EKVX | 0.962

compound: Cc1cnc(CNC(=O)c2c(=O)c3ccc(N4CCCN(C)CC4)nc3n3c2sc2ccccc23)cn1 [CX-5461] + CS(=O)(=O)CCNCc1ccc(-c2ccc3ncnc(Nc4ccc(OCc5cccc(F)c5)c(Cl)c4)c3c2)o1 [Lapatinib] (partner 2 µM); assay: as above; settings: first compound 0.01 µM
How it was run: as §1

Cell Line | relative viability
LU99A | 0.859
BEN | 0.77
HARA | 0.904
HCC-78 | 1
